Assay results published in PubChem BioAssay AID463206 (Broad Institute, 2010).
Active and inactive are the calls of the source.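 Rule for the calls: active = caspase luminescence falls with dose and the half-maximal concentration AC50 from the fitted curve is at or below a set limit; inconclusive = flat fit at 30 to 70% signal loss, or invalid fit; inactive = AC50 above the limit, or signal rises instead.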

These molecules were tested on INS-1E cytokine-induced caspase-3/7, Caspase-Glo luminescence, 48 h (assay: inhibitors of cytokine-induced caspase-3/7 activity, dose response, orthogonal assay for beta-cell apoptosis protection project, INS-1E rat cells, luminescence (AID 463206)).
In the case of `COc1ccc(CC(=O)Nc2ccncc2Cl)cc1`, the AC50 is reported as > 26 µM (inactive). With `C=C1[C@@H](O)[C@@H]2O[C@]3(CC[C@H](/C=C/[C@@H](C)[C@@H]4CC(C)=CC5(O[C@H](C[C@@](C)(O)C(=O)OC)CC[C@H]5O)O4)O3)CC[C@H]2O[C@@H]1[C@@H](O)C[C@H](C)[C@H]1OC2(CCCCO2)CC[C@H]1C` (stereo partly specified) the AC50 was > 26 µM (inactive). In the case of `CC(=O)Cc1cc(O)c2ccccc2c1OC(=O)c1ccc(Br)cc1`, the AC50 is reported as > 26 µM (inactive). For `CC(=O)c1cccc(N=c2scc(-c3ccc(S(=O)(=O)N4CCOCC4)cc3)n2CCO)c1`, the AC50 was > 26 µM (inactive). With `O=C(N/N=C(\Cc1ncc[nH]1)c1ccccc1)c1ccncc1` the AC50 was > 26 µM (inactive). `CCCOc1ccc(/C=N/Nc2cc(N3CCOCC3)ncn2)c(O)c1` was tested, and the AC50 was > 26 µM (inactive). In the case of `Cc1ccc(C)c(-c2csc(NC(=O)C3=COCCO3)n2)c1`, the AC50 is reported as > 26 µM (inactive). `COc1cc2sc(-c3ccccc3OC)c(-c3ccc(OCCN4CCCCC4)cc3)c2cc1OC` showed an AC50 of 16 µM. For `CCN(C1CCCCC1)S(=O)(=O)c1ccc(S(=O)(=O)NCc2ccncc2)cc1`, the AC50 was > 26 µM (inactive). `C=C1C(=O)O[C@@H]2C[C@@H](C)[C@@H]3C=CC(=O)[C@@]3(C)[C@@H](O)[C@H]12` was tested, and the AC50 was > 26 µM (inactive). `Cc1cccnc1Nc1nc(-c2ccccn2)cs1` was tested, and the AC50 was > 26 µM (inactive). In the case of `c1ccc2c3c([nH]c2c1)C1(CCNCC1)NCC3`, the AC50 is reported as > 26 µM (inactive). With `Brc1ccc(CN2CCN(Cc3c[nH]c4ccccc34)CC2)cc1` the AC50 was > 26 µM (inactive). `COc1cc(CNCCO)cc(Cl)c1OCc1ccc(Cl)cc1Cl` was tested, and the AC50 was > 26 µM (inactive). In the case of `Cc1ccc2nc(NC(=O)/C=C/c3ccc4c(c3)OCO4)sc2c1`, the AC50 is reported as > 26 µM (inactive). With `CCn1c(Cl)c(C=O)s/c1=N\S(=O)(=O)c1ccccc1` the AC50 was > 26 µM (inactive). In the case of `CCOc1ccc2nc(NC(=O)c3cccc(-c4cc5ccccc5oc4=O)c3)sc2c1`, the AC50 is reported as > 26 µM (inactive). `COc1ccc2nc(C)cc(N/N=C/c3ccccc3)c2c1` gave an AC50 of 10.1 µM. For `Cc1ccccc1NC(=S)Nc1cccc2cnccc12`, the AC50 was > 26 µM (inactive). With `CCc1ccc(C2CC(c3cccc(Cl)c3)n3nc(N)nc3N2)cc1` (stereo unspecified) the AC50 was > 12 µM (inactive). With `COc1cc(NC(=O)c2cc3ccccc3cc2O)c(OC)cc1Cl` the AC50 was > 26 µM (inactive). For `COc1ccc(CCNc2ncnc3sc(C)cc23)cc1OC`, the AC50 was > 26 µM (inactive). For `O=C(N/N=C/c1c(O)ccc2ccccc12)c1cccnc1`, the AC50 was > 26 µM (inactive). For `COc1ccc(NC(=O)/C(Cl)=C(/Cl)S(=O)Cc2ccc(C)cc2)cn1` (stereo unspecified), the AC50 was > 26 µM (inactive). In the case of `Cc1ccc(Cl)cc1N1CCN(C(=O)CSc2nnc3n2C(C)(C)Cc2ccccc2-3)CC1`, the AC50 is reported as > 26 µM (inactive). In the case of `O=C(CCCN1C(=O)/C(=C/c2ccccc2)SC1=S)NCCCn1ccnc1`, the AC50 is reported as > 26 µM (inactive). `CC#CC[N+](C)(C)CCCCCCCC` was tested, and the AC50 was > 26 µM (inactive). `CCN(CC)c1ccc(/C=N/NC(=O)CNC(=O)C2COc3ccccc3O2)c(O)c1` (stereo unspecified) was tested, and the AC50 was > 26 µM (inactive). With `C=CC(C)(C)c1c(O)c(CC=C(C)C)c(O)c2c(=O)c3ccc(O)c(O)c3oc12` the AC50 was > 26 µM (inactive). With `O=C(COc1ccc2ccccc2c1)N1CCN(Cc2c[nH]c3ccccc23)CC1` the AC50 was > 26 µM (inactive). `CC(C)(C)c1cnnn1-c1ccc(/C=N/Nc2ccc([N+](=O)[O-])cc2)cc1` was tested, and the AC50 was > 26 µM (inactive). In the case of `CCCCCCCC[n+]1c(C)n(-c2ccccc2)c2ccc(NC(C)=O)cc21`, the AC50 is reported as > 26 µM (inactive). With `CN(C)CCCn1cnc2c(c1=N)C(c1ccccc1)c1ccc3ccccc3c1O2` (stereo unspecified) the AC50 was 9.99 µM. With `Cc1cc2nc(-c3ccc(NC(=O)c4cccnc4)cc3)oc2cc1C` the AC50 was > 26 µM (inactive). In the case of `O=[N+]([O-])c1cc(Cl)cc(/C=N\Nc2ccccn2)c1O`, the AC50 is reported as > 26 µM (inactive). In the case of `COC(=O)[C@H](CC(C)C)N(Cc1ccccc1)S(=O)(=O)N(Cc1ccccc1)[C@@H](CC(C)C)C(=O)OC`, the AC50 is reported as > 26 µM (inactive). With `CCN(CC)C(=O)c1cc([N+](=O)[O-])cc2c1-c1ccc([N+](=O)[O-])cc1C2=C(C#N)C#N` the AC50 was > 26 µM (inactive). With `COc1cc(C(=O)Oc2c(CN3CCOCC3)cc(Cl)c3cccnc23)cc(OC)c1OC` the AC50 was > 26 µM (inactive). With `Cc1ccc(NC(=O)Cn2c(O)c(N=NC(=O)c3cc4ccccc4cc3O)c3ccccc32)cc1` the AC50 was > 26 µM (inactive). In the case of `CCCC(=O)NC(c1ccc(Cl)cc1)c1ccc2cccnc2c1O` (stereo unspecified), the AC50 is reported as > 26 µM (inactive). In the case of `N#CC1=C(N)Oc2c(ccc3cccnc23)C1c1cccnc1` (stereo unspecified), the AC50 is reported as > 26 µM (inactive). With `COc1ccccc1NC(=O)Cn1cc(C(=O)c2ccco2)c2ccccc21` the AC50 was > 26 µM (inactive). `O=C(N/N=C/c1cc([N+](=O)[O-])ccc1O)c1cccc(NC(=O)c2cccc(Cl)c2)c1` was tested, and the AC50 was > 26 µM (inactive). In the case of `Cc1ccc(NC2=C(N3CCCCC3)C(=O)c3ccccc3C2=O)cc1`, the AC50 is reported as > 26 µM (inactive). In the case of `CC(=O)c1c(C)oc2ccc(N(C(C)=O)S(=O)(=O)c3cccc4cccnc34)cc12`, the AC50 is reported as > 26 µM (inactive). For `COCCN(C(=O)COC(=O)C1CCC(C(C)(C)C)CC1)c1c(N)n(Cc2ccccc2)c(=O)[nH]c1=O` (stereo unspecified), the AC50 was > 26 µM (inactive).
